Five molecules from patent US20240360126A1, “PYRAZOLO[3,4-B]PYRIDINE COMPOUNDS FOR THE TREATMENT OF AUTOIMMUNE DISEASE” (Hoffmann-La Roche Inc., priority 2021, published 2024) can be followed below.

Each structure is given as a SMILES string. pIC50: −log10 of the molar value.

Data set [1] is described as follows: Human microsome stability assay. Type of data set: in vitro ADME. The conditions noted are these: for Clearance of Human microsome: 1 μM test compound, 0.5 mg/mL liver microsomal protein, 37° C. As for the experimental part:
The human microsomal stability assay is used for early assessment of metabolic stability of a test compound in human liver microsomes.
Human liver microsomes (Cat. NO.: 452117, Corning, USA; Cat. NO.:H2610, Xenotech, USA) were preincubated with test compound for 10 minutes at 37° C. in 100 mM potassium phosphate buffer, pH 7.4. The reactions were initiated by adding NADPH regenerating system.
The final incubation mixtures contained 1 μM test compound, 0.5 mg/mL liver microsomal protein, 1 mM MgCl2, 1 mM NADP, 1 unit/mL isocitric dehydrogenase and 6 mM isocitric acid in 100 mM potassium phosphate buffer, pH 7.4. After incubation times of 0, 3, 6, 9, 15 and 30 minutes at 37° C., 300 μL of cold acetonitrile (including internal standard) was added to 100 μL incubation mixture to terminate the reaction. Following precipitation and centrifugation, the amount of compound remaining in the samples were determined by LC-MS/MS. Controls of no NADPH regenerating system at zero and 30 minutes were also prepared and analyzed.
In general terms: Liver microsomes are vesicles of endoplasmic reticulum, rich in cytochrome P450 enzymes.

Data set [2] has as its target T1, hERG K+ channel (Homo sapiens, UniProt Q12809).
T1 construct: expressed in transfected cells; host or cells: CHO (Chinese hamster ovary)
The data set can be described thus: hERG channel inhibition assay (patch-clamp, CHO-hERG cells). Type of data set: cell-based. The conditions noted are these: for pIC50 / IC20: CHO-hERG cells, whole-cell patch-clamp; for IC20: human, CHO cells stably expressing hERG; for hERG IC20/TLR7 IC50 / hERG IC20/TLR8 IC50 / hERG IC20/TLR9 IC50: safety ratio. As for the experimental part:
The hERG K^+ channels were cloned in humans and stably expressed in a CHO (Chinese hamster ovary) cell line. CHOhERG cells were used for patch-clamp (voltage-clamp, whole-cell) experiments. Cells were stimulated by a voltage pattern to activate hERG channels and conduct IKhERG Currents (rapid delayed outward rectifier potassium current of the hERG channel). After the cells were stabilized for a few minutes, the amplitude and kinetics of IKhERG were recorded at a stimulation frequency of 0.1 Hz (6 bpm). Thereafter, the test compound was added to the preparation at increasing concentrations. For each concentration, an attempt was made to reach a steady-state effect, usually, this was achieved within 3-10 min at which time the next highest concentration was applied. The amplitude and kinetics of IKhERG are recorded in each concentration of the drug which were compared to the control values (taken as 100%). (references: Redfe W S, Carlsson L, Davis A S, Lynch W G, MacKenzie I, Palethorpe S, Siegl P K, Strang I, Sullivan A T, Wallis R, Camm A J, Hammond T G. 2003; Relationships between preclinical cardiac electrophysiology, clinical QT interval prolongation and torsade de pointes for a broad range of drugs: evidence for a provisional safety margin in drug development. Cardiovasc. Res. 58:32-45, Sanguinetti M C, Tristani-Firouzi M. 2006; hERG potassium channels and cardiac arrhythmia. Nature 440:463-469, Webster R, Leishman D, Walker D. 2002; Towards a drug concentration effect relationship for QT prolongation and torsades de pointes. Curr. Opin. Drug Discov. Devel. 5:116-26).
On the technique in general: The hERG channel carries a current that helps repolarise heart muscle cells.

The target of data set [3] is T2, TLR9 (Homo sapiens, UniProt Q9NR96).
T2 sequence (Q9NR96 26-1032): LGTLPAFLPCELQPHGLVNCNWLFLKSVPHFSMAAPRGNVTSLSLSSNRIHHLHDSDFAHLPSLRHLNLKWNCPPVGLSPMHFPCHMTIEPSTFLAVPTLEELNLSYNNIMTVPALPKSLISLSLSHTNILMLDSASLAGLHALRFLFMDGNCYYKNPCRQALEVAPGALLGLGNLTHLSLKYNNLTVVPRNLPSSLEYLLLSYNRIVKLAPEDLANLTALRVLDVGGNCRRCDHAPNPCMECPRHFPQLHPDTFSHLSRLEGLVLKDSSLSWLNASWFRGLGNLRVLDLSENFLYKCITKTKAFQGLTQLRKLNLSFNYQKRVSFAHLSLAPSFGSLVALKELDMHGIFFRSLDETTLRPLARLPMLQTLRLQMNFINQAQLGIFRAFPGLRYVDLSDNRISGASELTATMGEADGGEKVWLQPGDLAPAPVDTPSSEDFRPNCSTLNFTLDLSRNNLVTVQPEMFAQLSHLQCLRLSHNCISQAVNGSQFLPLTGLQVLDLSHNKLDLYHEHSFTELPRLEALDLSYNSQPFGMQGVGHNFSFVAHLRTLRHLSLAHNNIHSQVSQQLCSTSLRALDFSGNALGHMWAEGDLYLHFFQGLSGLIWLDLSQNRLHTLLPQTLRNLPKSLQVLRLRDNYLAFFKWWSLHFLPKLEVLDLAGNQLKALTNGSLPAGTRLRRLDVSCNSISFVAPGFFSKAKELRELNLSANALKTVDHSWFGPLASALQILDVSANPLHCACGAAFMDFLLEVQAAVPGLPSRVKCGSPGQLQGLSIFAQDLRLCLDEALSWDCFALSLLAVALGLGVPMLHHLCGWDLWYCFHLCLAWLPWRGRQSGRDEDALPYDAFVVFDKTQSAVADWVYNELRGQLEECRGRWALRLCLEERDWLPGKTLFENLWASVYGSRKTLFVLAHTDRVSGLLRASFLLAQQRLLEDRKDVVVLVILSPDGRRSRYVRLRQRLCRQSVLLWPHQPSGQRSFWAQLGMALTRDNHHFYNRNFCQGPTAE
Kind of data set: Human PBMC cell-based assay. Details: These cells express TLR7, TLR8, or TLR9, and therefore are natural responders to respective ligand stimulation; endogenous in cells; host or cells: human PBMC from healthy donor whole blood. The conditions noted are these: CpG ODN 2216 at 1 μM, read-out: hPBMC/TLR9 IC50. The source says: Unlike the HEK reporter cell lines, human peripheral blood mononuclear cell (PBMC) represents primary human immune cells in blood mainly consisting of lymphocytes, monocytes, and dendritic cells. These cells express TLR7, TLR8, or TLR9, and therefore are natural responders to respective ligand stimulation. Upon activation of these TLRs, PBMCs secrete similar cytokines and chemokines in vitro and in vivo, and therefore the in vitro potency of a TLR7/8/9 antagonist in human PBMC is readily translatable to its pharmacodynamics response in vivo.
Human peripheral blood mononuclear cells (PBMC) were isolated from freshly-drawn lithium-heparinized (Lithium Heparin Plus blood Collection tube, BD Vacutainer®) healthy donor whole blood by density gradient (Ficoll-Paque™ PLUS, GE Healthcare life Sciences). Briefly, […] was diluted with 25 mL PBS (without Ca^2+, Mg^2+) in a 50 mL conical tube with porous barrier (Leucosep tube, Greiner bio-one), where 15.5 mL Ficoll-Paque was under laid after spinning. Tubes were centrifuged for 20 minutes at 800×g (1946 rpm) with the brake in the off position, and PBMC were collected from the buffy coat. Cells were then washed twice in PBS, and red blood cells were lysed by suspension in 2 mL (Red Blood Cell Lysis Buffer, Alfa Aesar) for 5-10 minutes at room temperature. After a final wash in PBS, PBMC were resuspended at a final concentration of 2×10^6 cells/mL in RPMI-1640 media with GlutaMAX™ (Gibco) supplemented with 10% Fetal Bovine Serum (Sigma) and plated at 150 μL/well (3×10^5 cells/well) in tissue culture treated round bottom 96-well plates (Corning Incorporated). Antagonist compounds (compounds of this invention) solubilized and serial diluted in 100% DMSO were added in duplicate to cells to yield a final concentration of 1% DMSO (v/v). PBMC were incubated with antagonist compounds for 30 minutes at 37° C., 5% CO2 before adding various TLR agonist reagents in 48 μL complete media per well as follows (final concentrations indicated): CpG ODN 2216 (InvivoGen) at 1 μM for TLR9, ORN 06/LyoVec (InvivoGen) at […] for TLR8 and R848 (InvivoGen) at 1 μg/mL for TLR7 and TLR8. PBMC were incubated overnight at 37° C. with 5% C02. Cell culture supernatants were collected, and levels of various human cytokines were assessed by Luminex assay (ProcartaPlex™ Multiplex Immunoassay, Invitrogen) or ELISA procedure according to the manufacturer's recommended protocol (eBioscience, ThermoFisher Scientific). Viability of the cells was also checked with Cell Viability Assay (CellTiter Glo® Luminescent Cell Viability Assay, Promega).

The target in data set [4] is T2, TLR9. The data set can be described thus: TLR9 activity of Novartis WO2018047081 compounds (background comparison).

T1 sequence (Q12809 whole entry): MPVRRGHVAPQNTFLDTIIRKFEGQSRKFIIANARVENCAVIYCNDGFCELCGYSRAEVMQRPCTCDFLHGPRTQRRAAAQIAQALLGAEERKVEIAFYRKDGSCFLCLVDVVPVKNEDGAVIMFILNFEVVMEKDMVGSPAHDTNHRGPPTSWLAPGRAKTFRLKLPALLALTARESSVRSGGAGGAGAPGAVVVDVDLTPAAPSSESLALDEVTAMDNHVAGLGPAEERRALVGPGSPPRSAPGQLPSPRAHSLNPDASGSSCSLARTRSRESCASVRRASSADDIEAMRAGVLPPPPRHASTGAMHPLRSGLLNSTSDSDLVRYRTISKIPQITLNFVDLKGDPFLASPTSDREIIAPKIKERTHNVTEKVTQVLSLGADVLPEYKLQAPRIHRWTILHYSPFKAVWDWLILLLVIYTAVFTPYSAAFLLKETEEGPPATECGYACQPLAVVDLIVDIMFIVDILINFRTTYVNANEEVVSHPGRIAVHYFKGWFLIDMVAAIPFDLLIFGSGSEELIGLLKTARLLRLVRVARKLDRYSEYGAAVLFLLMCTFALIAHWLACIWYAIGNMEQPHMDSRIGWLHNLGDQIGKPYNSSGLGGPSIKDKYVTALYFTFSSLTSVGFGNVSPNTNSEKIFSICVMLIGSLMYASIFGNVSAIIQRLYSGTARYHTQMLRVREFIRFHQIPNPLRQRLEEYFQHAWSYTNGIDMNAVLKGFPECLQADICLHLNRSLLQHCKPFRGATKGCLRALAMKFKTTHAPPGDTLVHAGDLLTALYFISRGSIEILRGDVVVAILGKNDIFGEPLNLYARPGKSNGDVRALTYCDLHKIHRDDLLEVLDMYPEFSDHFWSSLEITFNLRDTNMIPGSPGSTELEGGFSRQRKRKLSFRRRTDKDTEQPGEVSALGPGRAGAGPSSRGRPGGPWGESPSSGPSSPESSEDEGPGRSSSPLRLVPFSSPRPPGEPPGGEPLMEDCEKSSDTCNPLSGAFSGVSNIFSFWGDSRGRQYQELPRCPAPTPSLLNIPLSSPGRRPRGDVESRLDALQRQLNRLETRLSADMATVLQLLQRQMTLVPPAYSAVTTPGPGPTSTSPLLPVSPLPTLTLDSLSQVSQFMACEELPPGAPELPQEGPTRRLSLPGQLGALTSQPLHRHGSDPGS

On to `C[C@@H]1CN(c2ccnc3c2cnn3C)CC[C@H]1c1ccc(N2CCNCC2)nc1` (relative stereo) [Example 19, 1-methyl-4-[trans-3-methyl-4-(6-piperazin-1-yl-3-pyridyl)-1-piperidyl]pyrazolo[3,4-b]pyridine], for which the “Clearance of Human microsome” value in data set [1] is on record as 6.2 mL/min/kg.
As a reminder, the IC20 is the concentration needed for an effect of 20%. Consider `Cc1cc(N2CCC(c3ncc(N4CCNCC4)nc3C)CC2)c2cnn(C)c2n1` [Example 12, 1,6-dimethyl-4-[4-(3-methyl-5-piperazin-1-yl-pyrazin-2-yl)-1-piperidyl]pyrazolo[3,4-b]pyridine], for which, in data set [2], the pIC50 is under 4.70, it took 7 µM to reach the 20% level (IC20), the “hERG IC20/TLR7 IC50” value was 205.9 and the “hERG IC20/TLR8 IC50” value is listed as 233.3. Besides, the “hERG IC20/TLR9 IC50” value in data set [2] came to 15.5. Also, the “Clearance of Human microsome” value in data set [1] was 9.7 mL/min/kg.
In the case of `Cc1cc(N2CC[C@@H](c3ncc(N4CCNC5(CC5)C4)cc3C)[C@H](C)C2)c2cnn(C)c2n1` [Example 30, 4-[(3S,4R)-4-[5-(4,7-diazaspiro[2.5]octan-7-yl)-3-methyl-2-pyridyl]-3-methyl-1-piperidyl]-1,6-dimethyl-pyrazolo[3,4-b]pyridine], in data set [2], the pIC50 was under 5.00, it took 4.9 µM to reach the 20% level (IC20), the “hERG IC20/TLR7 IC50” value was found to be 544.4 and the “hERG IC20/TLR8 IC50” value worked out at 350.0. For the same molecule, in data set [2], the “hERG IC20/TLR9 IC50” value came out at 11.6. For the same molecule, in data set [3], the pIC50 is 6.11.
Regarding `Cc1cc(N2CCc3c(c(C)nn3CC34CCC(NC(=O)[C@@H]5COCCN5)(CC3)CC4)C2)c2cnn(C)c2n1` [Example N8, reference compound], in data set [1], the “human liver microsome stability (in words)” value is recorded as “poor” and the “Clearance of Human microsome” value is on record as 16.3 mL/min/kg. In addition, the “TLR9 activity (in words)” value in data set [4] is recorded as “much lower TLR9 activity”.
The corresponding values for `Cc1cc(N2CCc3c(c(C)nn3CC34CCC(N(C)C5CCC5)(CC3)CC4)C2)c2cnn(C)c2n1` [Example N79, reference compound] are “poor”, 18.2 mL/min/kg and “best TLR9 activity”.
